The conditions of series [1]: 298.15 K, Liquid.
Series [2] is described as follows: xn = mol fraction of the nth substance listed. Conditions: 298.15 K, 100 kPa, Liquid, Vibrating tube method.

Numbers after ± are expanded uncertainties.

Regarding `OCCO` [1,2-ethanediol], the mass density in series [1] (100 kPa, Vibrating tube method) is reported as 1112.1 ± 1.4 kg/m3.

With `OCCO` [1,2-ethanediol] + CCCC[N+](CCCC)(CCCC)CCCC.[Br-], in series [2] (x2 = 0), the mass density worked out at 1112.1 ± 1.4 kg/m3.

Turning to `c1c[nH]cn1` [1H-imidazole] + CCCC[N+](CCCC)(CCCC)CCCC.[Br-], in series [2] (x2 = 0.333), the mass density worked out at 1092.2 ± 1 kg/m3.

Regarding `OCC(O)CO` [glycerol], the mass density in series [1] (101.33 kPa, Pycnometric method) came out at 1262 ± 2 kg/m3.

Turning to `CCCC[N+](CCCC)(CCCC)CCCC.[Br-]` [tetrabutylammonium bromide] + OCC(O)CO, in series [2] (x1 = 0.2), the mass density was found to be 1137.1 ± 1.3 kg/m3.

On to `CCCC[N+](CCCC)(CCCC)CCCC.[Br-]` [tetrabutylammonium bromide] + OCCO, for which, in series [2] (x1 = 0.2), the mass density is listed as 1069.1 ± 1.2 kg/m3.

One may read the mass density as the mass of a sample divided by its volume.

Source of the values: the NIST ThermoML archive (doi:10.1016/j.fluid.2017.05.024).
